According to ChEMBL document CHEMBL1221242, “Design and synthesis of HCV agents with sequential triple inhibitory potentials” (2010):

Tests used:
Hepacivirus hominis = test: Ratio of inhibition of HCV 1b NS5B Cdelta21 polymerase to inhibition of HCV relative to HCV-796
Hepatitis C virus [1] = test: Inhibition of HCV 1b NS5B Cdelta21 polymerase expressed in Escherichia coli assessed as inhibition of [alpha-33P]GTP incorporation into RNA relative to HCV-796; set-up: species or system Hepatitis C virus subtype 1b
Hepatitis C virus [2] = test: Antiviral activity against HCV infected in human BB7 cells assessed as inhibition of viral replication after 3 days relative to HCV-796; assay type: functional, Hepacivirus hominis

Row | Structure (SMILES) | Ratio (Hepacivirus hominis) | Ratio (Hepatitis C virus [1]) | Ratio (Hepatitis C virus [2])
1 | CNC(=O)c1c(-c2ccc(F)cc2)oc2cc(N(CCO)S(C)(=O)=O)c(C3CC3)cc12 [NESBUVIR] | 1 | 1 | 1
2 | CNC(=O)c1c(-c2ccc(F)cc2)oc2cc(N(CCOC(=O)CCC(=O)OC[C@H]3O[C@@H](n4cnc(C(N)=O)n4)[C@@H]4OC(C)(C)O[C@@H]43)S(C)(=O)=O)c(C3CC3)cc12 | 0.31 | 42 | 13
3 | CNC(=O)c1c(-c2ccc(F)cc2)oc2cc(N(CCOP(=O)(O)OC[C@H]3O[C@@H](n4cnc(C(N)=O)n4)[C@H](O)[C@@H]3O)S(C)(=O)=O)c(C3CC3)cc12 | 1.18 | 6.2 | 7.3
4 | CNC(=O)c1c(-c2ccc(F)cc2)oc2cc(N(CCOC(=O)CCC(=O)OC[C@H]3O[C@@H](n4cnc(C(N)=O)n4)[C@H](O)[C@@H]3O)S(C)(=O)=O)c(C3CC3)cc12 | 0.28 | 22 | 6.2
5 | CNC(=O)c1c(-c2ccc(F)cc2)oc2cc(N(CCOP(=O)(O)O)S(C)(=O)=O)c(C3CC3)cc12 | 22.2 | 0.4 | 8.9
6 | CNC(=O)c1c(-c2ccc(F)cc2)oc2cc(N(CCOP(=O)(O)OC[C@H]3O[C@@H](n4cnc(C(N)=O)n4)[C@@H]4OC(C)(C)O[C@@H]43)S(C)(=O)=O)c(C3CC3)cc12 | 1.57 | 11.8 | 18.6
